By inhibition is commonly meant the drop in the measured response relative to a control, in per cent.

Eleven compounds from ChEMBL document CHEMBL4806963, “Antagonistic peptides for frizzled-1 and frizzled-2” (2013) can be followed below.

Activity calls are given as the source filed them. No cut-off for these calls is given here. Where a SMILES comes first, the peptide text is derived from it.

The target of experiment [1] is Frizzled-1 (Homo sapiens) (UniProt Q9UP38). The experiment in a line: Antagonist activity at Wnt3a-stimulated frizzled-1 (unknown origin) expressed in human HEK293superTOP flash cells incubated for 24 hrs by luciferase reporter gene assay. Format: functional, cell-based. Conditions: HEK293. On the technique in general: Reporter assays use an easily measured gene product as a stand-in for the process of interest.

Experiment [2] deals with Frizzled-2 (Homo sapiens) (UniProt Q14332). The experiment can be described thus: Antagonist activity at Wnt3a-stimulated frizzled-2 (unknown origin) expressed in human HEK293superTOP flash cells incubated for 24 hrs by luciferase reporter gene assay. Conditions: HEK293. Format: functional, cell-based.
The target is the same in experiment [3]. The experiment in a line: Agonist activity at frizzled-2 (unknown origin) expressed in human HEK293superTOP flash cells by luciferase reporter gene assay. Format: functional, cell-based. Conditions: HEK293.
The target of experiment [4] is Frizzled-1 (Homo sapiens) (UniProt Q9UP38). The experiment can be described thus: Agonist activity at frizzled-1 (unknown origin) expressed in human HEK293superTOP flash cells by luciferase reporter gene assay. Format: functional, cell-based. To be noted: HEK293.
In experiment [5] the target is Frizzled-1 (Rattus norvegicus) (UniProt Q08463). The experiment in a line: Agonist activity at rat frizzled-1 expressed in African green monkey COS7 cells by luciferase reporter gene assay. Format: cell-based.
The target of experiment [6] is Frizzled-2 (Rattus norvegicus) (UniProt Q08464). The experiment in a line: Agonist activity at rat frizzled-2 expressed in human HEK293superTOP flash cells by luciferase reporter gene assay. In kind it is cell-based. Conditions: HEK293.
Experiment [7] has as its target Frizzled-1 (Rattus norvegicus) (UniProt Q08463). The experiment can be described thus: Antagonist activity at Wnt3a-stimulated rat frizzled-1 expressed in human HEK293superTOP flash cells at 10 nM incubated for 24 hrs by luciferase reporter gene assay relative to control. Format: cell-based. To be noted: HEK293, filed as antagonist.
Experiment [8] has as its target Frizzled-2 (Rattus norvegicus) (UniProt Q08464). The experiment can be described thus: Antagonist activity at Wnt3a-stimulated rat frizzled-2 expressed in CHO cells incubated for 24 hrs by luciferase reporter gene assay relative to control. Format: cell-based. To be noted: filed as antagonist, concentration not given here.
For experiment [9] the target is unchanged. The experiment in a line: Antagonist activity at Wnt3a-stimulated rat frizzled-2 expressed in human HEK293superTOP flash cells at 10 nM incubated for 24 hrs by luciferase reporter gene assay relative to control. In kind it is cell-based. Conditions: HEK293, filed as antagonist.
The target in experiment [10] is Frizzled-1 (Rattus norvegicus) (UniProt Q08463). The experiment can be described thus: Antagonist activity at Wnt3a-stimulated rat frizzled-1 expressed in African green monkey COS7 cells incubated for 24 hrs by luciferase reporter gene assay relative to control. Format: cell-based. To be noted: filed as antagonist, concentration not given here.
Experiment [11] has the same target. The experiment in a line: Agonist activity at rat frizzled-1 expressed in CHO cells by luciferase reporter gene assay. In kind it is cell-based.
The target is the same in experiment [12]. The experiment in a line: Agonist activity at rat frizzled-1 expressed in human HEK293superTOP flash cells by luciferase reporter gene assay. In kind it is cell-based. Conditions: HEK293.
The target is the same in experiment [13]. The experiment can be described thus: Antagonist activity at Wnt3a-stimulated rat frizzled-1 expressed in CHO cells incubated for 24 hrs by luciferase reporter gene assay relative to control. To be noted: filed as antagonist, concentration not given here. In kind it is cell-based.
Experiment [14] addresses Frizzled-2 (Rattus norvegicus) (UniProt Q08464). The experiment can be described thus: Agonist activity at rat frizzled-2 expressed in CHO cells by luciferase reporter gene assay. Format: cell-based.
Experiment [15] has the same target. The experiment can be described thus: Antagonist activity at Wnt3a-stimulated rat frizzled-2 expressed in African green monkey COS7 cells incubated for 24 hrs by luciferase reporter gene assay relative to control. In kind it is cell-based. To be noted: filed as antagonist, concentration not given here.
Experiment [16] has the same target. The experiment can be described thus: Agonist activity at rat frizzled-2 expressed in African green monkey COS7 cells by luciferase reporter gene assay. In kind it is cell-based.
Experiment [17] deals with Frizzled-2 (Homo sapiens) (UniProt Q14332). The experiment in a line: Antagonist activity at Wnt3a-stimulated frizzled-2 (unknown origin) expressed in human HEK293superTOP flash cells at 10 nM incubated for 24 hrs by luciferase reporter gene assay. Format: functional, cell-based. Conditions: HEK293.
In experiment [18] the target is Frizzled-1 (Rattus norvegicus) (UniProt Q08463). The experiment can be described thus: Antagonist activity at Wnt3a-stimulated rat frizzled-1 expressed in CHO cells up to 10 uM incubated for 24 hrs by luciferase reporter gene assay. Conditions: dose microM <=10, time 24.0 hrs. In kind it is cell-based.
For experiment [19], the target named is Frizzled-2 (Rattus norvegicus) (UniProt Q08464). The experiment can be described thus: Antagonist activity at Wnt3a-stimulated rat frizzled-2 expressed in […] cells up to 10 uM incubated for 24 hrs by luciferase reporter gene assay. Conditions: dose microM <=10, time 24.0 hrs. Format: cell-based.
Experiment [20] shares this target. The experiment in a line: Antagonist activity at Wnt3a-stimulated rat frizzled-2 expressed in African green monkey COS7 cells up to 10 uM incubated for 24 hrs by luciferase reporter gene assay. In kind it is cell-based. To be noted: dose microM <=10, time 24.0 hrs.
The target in experiment [21] is Frizzled-1 (Homo sapiens) (UniProt Q9UP38). The experiment can be described thus: Antagonist activity at Wnt3a-stimulaed frizzled-1 (unknown origin) expressed in human HEK293superTOP flash cells at 1 nM incubated for 24 hrs by luciferase reporter gene assay (reference value: 0%). To be noted: HEK293, filed as antagonist. In kind it is functional, cell-based.
The target of experiment [22] is Frizzled-2 (Homo sapiens) (UniProt Q14332). The experiment can be described thus: Antagonist activity at Wnt3a-stimulaed frizzled-2 (unknown origin) expressed in human HEK293superTOP flash cells at 1 nM incubated for 24 hrs by luciferase reporter gene assay (reference value: 0%). In kind it is functional, cell-based. Conditions: HEK293, filed as antagonist.
The target of experiment [23] is Frizzled-1 (Rattus norvegicus) (UniProt Q08463). The experiment in a line: Antagonist activity at Wnt3a-stimulated rat frizzled-1 expressed in African green monkey COS7 cells up to 10 uM incubated for 24 hrs by luciferase reporter gene assay. In kind it is cell-based. To be noted: dose microM <=10, time 24.0 hrs.
Experiment [24] concerns the target Frizzled-1 (Homo sapiens) (UniProt Q9UP38). The experiment can be described thus: Antagonist activity at Wnt3a-stimulated frizzled-1 (unknown origin) expressed in human HEK293superTOP flash cells at 10 nM incubated for 24 hrs by luciferase reporter gene assay. Conditions: HEK293. In kind it is functional, cell-based.

Frizzled-2 (Homo sapiens), sequence (Q14332 24-565 limits assumed): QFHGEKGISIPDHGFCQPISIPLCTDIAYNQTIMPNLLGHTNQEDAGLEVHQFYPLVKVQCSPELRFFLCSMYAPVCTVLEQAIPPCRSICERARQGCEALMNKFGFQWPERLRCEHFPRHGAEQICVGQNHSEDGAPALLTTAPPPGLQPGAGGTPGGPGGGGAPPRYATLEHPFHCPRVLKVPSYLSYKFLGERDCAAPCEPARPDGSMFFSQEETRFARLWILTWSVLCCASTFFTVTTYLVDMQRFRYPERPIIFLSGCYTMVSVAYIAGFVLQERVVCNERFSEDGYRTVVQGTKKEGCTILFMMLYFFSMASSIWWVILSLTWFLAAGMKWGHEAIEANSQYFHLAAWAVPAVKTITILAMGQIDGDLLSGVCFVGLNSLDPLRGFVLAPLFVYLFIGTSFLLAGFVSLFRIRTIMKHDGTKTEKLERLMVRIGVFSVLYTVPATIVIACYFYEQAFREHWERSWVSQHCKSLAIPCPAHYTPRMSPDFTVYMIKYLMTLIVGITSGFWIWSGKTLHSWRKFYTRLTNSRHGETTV
Frizzled-2 (Rattus norvegicus), sequence (Q08464 29-570 limits assumed): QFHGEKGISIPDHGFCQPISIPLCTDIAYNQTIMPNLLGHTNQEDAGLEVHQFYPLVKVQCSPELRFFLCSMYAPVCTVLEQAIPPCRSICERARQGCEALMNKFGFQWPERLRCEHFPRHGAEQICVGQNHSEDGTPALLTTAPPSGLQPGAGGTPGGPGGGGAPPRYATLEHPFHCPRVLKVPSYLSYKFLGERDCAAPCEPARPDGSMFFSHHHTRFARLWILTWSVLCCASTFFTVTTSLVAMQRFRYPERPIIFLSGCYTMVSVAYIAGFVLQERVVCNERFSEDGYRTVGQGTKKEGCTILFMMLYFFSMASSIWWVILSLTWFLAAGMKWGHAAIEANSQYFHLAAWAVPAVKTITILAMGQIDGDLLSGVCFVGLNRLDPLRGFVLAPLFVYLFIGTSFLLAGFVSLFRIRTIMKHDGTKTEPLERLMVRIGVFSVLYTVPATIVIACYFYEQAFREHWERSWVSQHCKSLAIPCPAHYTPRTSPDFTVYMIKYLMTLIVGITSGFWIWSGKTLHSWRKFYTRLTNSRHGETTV
Frizzled-1 (Homo sapiens), sequence (Q9UP38 70-647 limits assumed): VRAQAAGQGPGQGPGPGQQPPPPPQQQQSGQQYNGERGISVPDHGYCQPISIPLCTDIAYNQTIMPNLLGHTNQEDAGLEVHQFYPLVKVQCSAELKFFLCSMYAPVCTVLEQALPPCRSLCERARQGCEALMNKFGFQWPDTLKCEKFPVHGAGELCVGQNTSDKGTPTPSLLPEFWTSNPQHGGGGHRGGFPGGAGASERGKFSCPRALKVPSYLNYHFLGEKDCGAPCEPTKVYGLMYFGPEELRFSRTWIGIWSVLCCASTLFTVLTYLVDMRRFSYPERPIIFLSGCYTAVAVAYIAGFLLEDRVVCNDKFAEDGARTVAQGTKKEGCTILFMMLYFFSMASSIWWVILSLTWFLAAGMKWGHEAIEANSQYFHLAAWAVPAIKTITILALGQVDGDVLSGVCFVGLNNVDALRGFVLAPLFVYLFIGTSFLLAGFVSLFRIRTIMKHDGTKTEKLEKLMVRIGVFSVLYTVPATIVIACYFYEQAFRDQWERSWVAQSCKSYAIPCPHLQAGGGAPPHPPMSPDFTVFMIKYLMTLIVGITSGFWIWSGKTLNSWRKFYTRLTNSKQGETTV
Frizzled-1 (Rattus norvegicus), sequence (Q08463 whole entry): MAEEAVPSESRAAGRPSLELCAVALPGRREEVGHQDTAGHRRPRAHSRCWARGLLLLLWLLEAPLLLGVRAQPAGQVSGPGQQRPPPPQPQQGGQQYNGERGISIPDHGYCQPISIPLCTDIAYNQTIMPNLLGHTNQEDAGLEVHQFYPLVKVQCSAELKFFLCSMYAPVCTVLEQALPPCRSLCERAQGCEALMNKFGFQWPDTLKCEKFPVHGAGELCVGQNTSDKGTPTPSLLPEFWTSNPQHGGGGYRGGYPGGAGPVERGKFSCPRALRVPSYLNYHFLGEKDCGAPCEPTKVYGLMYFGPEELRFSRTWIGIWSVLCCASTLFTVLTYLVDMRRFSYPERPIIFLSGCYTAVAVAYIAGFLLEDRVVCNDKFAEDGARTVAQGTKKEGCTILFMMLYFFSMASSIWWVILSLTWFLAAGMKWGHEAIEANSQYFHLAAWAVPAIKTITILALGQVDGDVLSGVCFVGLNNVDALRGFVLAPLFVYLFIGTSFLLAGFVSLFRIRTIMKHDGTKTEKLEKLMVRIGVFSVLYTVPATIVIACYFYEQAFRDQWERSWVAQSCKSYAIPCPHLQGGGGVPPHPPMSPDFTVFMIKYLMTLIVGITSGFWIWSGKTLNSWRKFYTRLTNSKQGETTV

Take `CC[C@H](C)[C@H](NC(C)=O)C(=O)N[C@@H](CCC(=O)O)C(=O)N[C@@H](CCC(=O)O)C(=O)N[C@@H](CS)C(=O)N[C@@H](CCC(N)=O)C(=O)N[C@@H](Cc1cnc[nH]1)C(=O)N[C@@H](CCC(N)=O)C(=O)N[C@@H](Cc1ccccc1)C(=O)N[C@@H](CCCNC(=N)N)C(=O)N[C@@H](CC(=O)O)C(=O)N[C@@H](CCCNC(=N)N)C(=O)N[C@@H](CCCNC(=N)N)C(=O)N[C@@H](Cc1c[nH]c2ccccc12)C(=O)N[C@@H](CC(N)=O)C(=O)N[C@@H](CS)C(N)=O` (Ac-IEECQHQFRDRRWNC-NH2): the inhibition result in [1] and in [2] was “inactive” each time. The result in [3] and in experiment [4] was inactive.

With Ac-GSKGTQGRACN-NH2, the inhibition result in experiment [1] and in experiment [2] was “inactive” throughout. Besides, the outcome in experiment [3] and in experiment [4] was inactive.

For `CC(=O)N[C@@H](CS)C(=O)N[C@@H](CCCCN)C(=O)N[C@@H](CS)C(=O)N[C@@H](Cc1cnc[nH]1)C(=O)NCC(=O)N[C@H](C(=O)N[C@@H](CO)C(=O)NCC(=O)N[C@@H](CO)C(=O)N[C@@H](CS)C(=O)N[C@H](C(=O)N[C@H](C(=O)N[C@@H](CCCCN)C(=O)N[C@H](C(=O)N[C@@H](CS)C(=O)N[C@@H](Cc1c[nH]c2ccccc12)C(N)=O)[C@@H](C)O)C(C)C)[C@@H](C)O)C(C)C` (Ac-CKCHGVSGSCTVKTCW-NH2), the inhibition result in experiment [1] and in experiment [2] was “inactive” each time. Besides, the result in experiment [3] and in experiment [4] was inactive.

Take `CC[C@H](C)[C@H](NC(=O)CNC(C)=O)C(=O)N[C@@H](CCCCN)C(=O)N[C@@H](CCC(=O)O)C(=O)N[C@@H](CS)C(=O)N[C@@H](CCC(N)=O)C(=O)N[C@@H](Cc1ccc(O)cc1)C(=O)N[C@@H](CCC(N)=O)C(=O)N[C@@H](Cc1ccccc1)C(=O)N[C@@H](CCCNC(=N)N)C(=O)N[C@@H](Cc1c[nH]cn1)C(=O)N[C@@H](CCCNC(=N)N)C(=O)N[C@@H](CCCNC(=N)N)C(=O)N[C@@H](Cc1c[nH]c2ccccc12)C(=O)N[C@@H](CC(N)=O)C(=O)N[C@@H](CS)C(=O)N[C@@H](CO)C(=O)N[C@H](C(=O)N[C@H](C(=O)N[C@@H](CC(=O)O)C(N)=O)C(C)C)[C@@H](C)O` (Ac-GIKECQYQFRHRRWNCSTVD-NH2): the outcome in [5], in experiment [6], in [11], in [12], in experiment [14] and in experiment [16] was inactive. Besides, the inhibition in experiment [7], in experiment [8], in experiment [9], in experiment [10], in experiment [13] and in experiment [15] was 100% each time.

Regarding Ac-GDWEWGECSDNI-NH2, the inhibition result in [1] and in experiment [2] was “inactive” each time. In addition, the result in experiment [3] and in [4] was inactive.

Turning to Ac-DLVYFELSPDFCA-NH2, the inhibition result in experiment [1] and in experiment [2] was “inactive” throughout. In addition, the outcome in experiment [3] and in experiment [4] was inactive.

On to `CSCC[C@H](NC(=O)CNC(=O)[C@H](CO)NC(=O)[C@H](CCCCN)NC(=O)[C@H](CC(N)=O)NC(=O)[C@H](CS)NC(C)=O)C(=O)N[C@@H](CC(=O)O)C(=O)NCC(=O)N[C@@H](CS)C(=O)N[C@@H](CCC(=O)O)C(=O)N[C@@H](CC(C)C)C(N)=O` (Ac-CNKSGMDGCEL-NH2), for which the inhibition entry in experiment [1] and in experiment [2] was “inactive” throughout. For the same compound, the result in experiment [3] and in experiment [4] was inactive.

On to `CC[C@H](C)[C@H](NC(=O)CNC(=O)[C@H](Cc1cnc[nH]1)NC(=O)[C@H](CO)NC(=O)[C@H](CO)NC(=O)[C@@H](NC(=O)[C@H](CC(N)=O)NC(=O)[C@@H](N)CS)C(C)C)C(=O)N[C@@H](CC(=O)O)C(=O)NCC(=O)N[C@@H](CS)C(=O)N[C@@H](CC(=O)O)C(=O)N[C@@H](CC(C)C)C(=O)O` (H-CNVSSHGIDGCDL-OH), for which the inhibition entry in experiment [17], in [18], in [19], in experiment [20], in experiment [23] and in experiment [24] was “inactive” each time. Further, the inhibition in [21] amounted to 45.3%; in experiment [22], 62.4%.

Take `CSCC[C@H](NC(=O)CNC(=O)[C@H](CCC(=O)O)NC(=O)[C@H](CO)NC(=O)[C@@H](NC(=O)[C@H](CCCCN)NC(=O)[C@H](CC(N)=O)NC(=O)[C@H](CS)NC(C)=O)[C@@H](C)O)C(=O)N[C@@H](CC(=O)O)C(=O)NCC(=O)N[C@@H](CS)C(=O)N[C@@H](C)C(=O)N[C@@H](C)C(N)=O` (Ac-CNKTSEGMDGCAA-NH2): the inhibition entry in [17], in experiment [18], in [19], in experiment [20], in experiment [23] and in [24] was “inactive” throughout. The inhibition in experiment [21] is 66.8%; in [22] it was 74.3%.

Consider `CSCC[C@H](NC(=O)CNC(=O)[C@H](CCC(=O)O)NC(=O)[C@H](C)NC(=O)[C@@H](NC(=O)[C@H](CCCCN)NC(=O)[C@H](CC(N)=O)NC(=O)[C@H](CS)NC(C)=O)[C@@H](C)O)C(=O)N[C@@H](CC(=O)O)C(=O)NCC(=O)N[C@@H](CS)C(=O)N[C@@H](CCC(=O)O)C(=O)N[C@@H](CC(C)C)C(N)=O` (Ac-CNKTAEGMDGCEL-NH2), for which the inhibition result in experiment [17], in [18], in experiment [19], in experiment [20], in experiment [23] and in experiment [24] was “inactive” in each case. For the same compound, the inhibition is 74.3% in experiment [21] and 87.3% in [22].

Consider Ac-MNRHNNEAGR-NH2, for which the inhibition result in experiment [1] and in [2] was “inactive” each time. In addition, the outcome in experiment [3] and in [4] was inactive.
